Measured values: patent US4536335A, “Carbapenem antibiotics” (Bristol-Myers Company, priority 1983, dated 1985)
Converted amounts (≈) assume the structure as drawn. Where two headings read alike, the source gives them in different places.

How the values were obtained:
K. pneumoniae A20468 = assay: In vitro MIC, tube dilution; assay type: cell-based; details: Nutrient Broth, overnight incubation at 37° C., additional data table
E. coli A20341-1 = assay: In vitro MIC, tube dilution; assay type: cell-based; details: Nutrient Broth, overnight incubation at 37° C., additional data table
E. cloacae A-9656 = assay: In vitro MIC, tube dilution; assay type: cell-based; details: Enterobacter cloacae, A9656, tube dilution, Nutrient Broth, overnight incubation at 37° C.; additional data table
P. aeruginosa A21213 = assay: In vitro MIC, tube dilution; assay type: cell-based; details: Pseudomonas aeruginosa, A21213, tube dilution, Nutrient Broth, overnight incubation at 37° C.; additional data table
S. aureus A-9606 = assay: Protective effect in the intramuscular treatment of infected mice (PD50); assay type: in vivo; details: Staphylococcus aureus, A9606, im; mice infected i.p. (Ex. 2: 2 × 10^9 organisms; Ex. 4 and 5: ~9 × 10^7), treated i.m. 0 and 2 h postinfection; read-out: PD50/treatment, S. aureus A-9606
K. pneumoniae A-9664 = assay: In vitro MIC, tube dilution; assay type: cell-based; details: Nutrient Broth, overnight incubation at 37° C., additional data table
E. coli A15119 = assay: In vitro MIC, tube dilution; assay type: cell-based; details: Nutrient Broth, overnight incubation at 37° C., additional data table
P. aeruginosa A-9843A [1] = assay: In vitro MIC, tube dilution; assay type: cell-based; details: Pseudomonas aeruginosa, A9843A, Nutrient Broth, overnight incubation at 37° C., additional data table
S. pneumoniae A-9585 = assay: In vitro MIC, tube dilution; assay type: cell-based; details: Streptococcus pneumoniae, A9585, Nutrient Broth, overnight incubation at 37° C., additional data table
P. mirabilis A-9900 = assay: In vitro MIC, tube dilution; assay type: cell-based; details: Proteus mirabilis, A9900, tube dilution, Nutrient Broth, overnight incubation at 37° C.; additional data table
[2] = Blood levels in mice after intramuscular administration; assay type: in vivo; details: mouse, intramuscular dose of 20 mg/kg; 20 mg/kg
Excerpt: Compounds were solubilized in 0.1 M phosphate buffer pH 7. Values are fro
a single test; 4 mice used per compound.
*t1/2 refers to halflife in minutes
**AUC refers to the area under the blood concentrationtime curve
(§1) Also shown is the urinary recovery in the mice.
Compounds were solubilized in 0.1 M phosphate buffer, pH 7.
Values based on a single test; 4 mice per compound.
*T1/2 refers to halflife in minutes

S. faecalis A20688 = assay: In vitro MIC, tube dilution; assay type: cell-based; details: Nutrient Broth, overnight incubation at 37° C., additional data table
[3] = Half-life in phosphate buffer solution; assay type: physicochemical; details: 37° C.
Procedure: A solution of para-nitrobenzyl 3-[2-(N-methylthiomorpholinium diphenylphosphate)ethylthio]-6α-[1'-(R)-hydroxyethyl]-7-oxo-1-azabicyclo[3.2.0]hept-2-ene-2-carboxylate (1.31 g, 1.76 mmol) in 0.1 M pH 7.4 phosphate buffer (48.8 mL), tetrahydrofuran (20 mL) and diethyl ether (20 mL) was hydrogenated over 10% pd/C (1.5 g) in a Parr shaker for 1 h at 40 psi. The reaction mixture was diluted with diethyl ether (40 mL) and the phases were separated. The organic phase was washed with water (2×5 mL). The aqueous phases were combined, filtered through a #52 hardened filter paper, washed with diethyl ether (2×20 mL) and pumped under vacuum. The aqueous solution was poured on a silica gel reverse phase column and the desired carbapenem was eluted with 5% acetonitrile-water.
To a solution of p-nitrobenzyl (5R,6S)-3-[2-(1-methylmorpholino)ethylthio]-6-[(R)-1-hydroxyethyl]-7-oxo-1-azabicyclo[3.2.0]hept-2-ene-2-carboxylate diphenylphosphate (0.360 g, 0.49 mmol) in 13 mL of phosphate buffer (0.05 M pH 7.4) was added 0.36 g of 10% palladium-on-charcoal, 20 mL of tetrahydrofuran and 20 mL of diethyl ether. This mixture was hydrogenated (Parr) at 32 psi for 1 h. The mixture was filtered through Celite and the filter pad was washed with H2 O and diethyl ether. The aqueous phase was separated and the pH was adjusted to 7.0 with additional pH 7.4 phosphate buffer. After removing residual organic solvents in vacuo the aqueous solution was applied to a C18 reverse-phase column.
To a solution of (5R,6S)paranitrobenzyl 3-[2-(1,4-dimethyl-1-piperazinium)ethylthio]-6-[1-(R)-hydroxyethyl]-7-oxo- 1-azabicyclo[3.2.0]hept-2-ene-2-carboxylate diphenylphosphate (0.47 g, 0.623 mmol) in wet tetrahydrofuran (25 mL) was added diethyl ether (25 mL), potassium phosphate monobasic-sodium hydroxide buffer (13 mL, pH 7.22) and 10% palladium on charcoal (0.47 g). The resulting mixture was hydrogenated at 23° C. under 40 psi for 1 h. The two layers were separated and the organic layer was extracted with water (2×7 mL).
To a cold (-10° C.) solution of (5R,6S)-3-[2 -(N-methyl-thiomorpholinium)ethylthio]-6-[1-(R)-hydroxyethyl]-7-oxo-1-azabicyclo(3.2.0)-hept-2-ene-2-carboxylate (608 mg, 1.65 mmol) in a 1:1 mixture of acetonitrile-water (9 mL) was added m-chloroperbenzoic acid (334.8 mg, 1.65 mmol) in small portion over a 1 hour period. The mixture was then diluted with water (15 mL) and washed with diethyl ether (3×15 mL).
A mixture of (5R,6S) paranitrobenzyl 3-[2-(1,4,4-trimethyl-1-piperazinium)ethylthio]-6-[1R-hydroxyethyl]-7-oxo- 1-azabicyclo(3.2.0)hept-2-ene-2-carboxylate bischloride (0.40 g, 0.68 mmol), phosphate buffer (30 mL, 0.05M, pH 7.0), tetrahydrofuran (10 mL), ether (30 mL) and 10% palladium on charcoal (0.40 g) was hydrogenated at 23° C. under 35 psi for 1 h. The two phases were separated. The organic phase was extracted with water (10 mL).

[4] = test system: S. aureus A-9606 (Pen-res.); assay: In vitro MIC, tube dilution; assay type: cell-based; details: Staphylococcus aureus, Nutrient Broth, overnight incubation at 37° C., additional data table, read-out: MIC S. aureus (Pen-res.) A-9606
P. morganii A15153 = assay: In vitro MIC, tube dilution; assay type: cell-based; details: Nutrient Broth, overnight incubation at 37° C., additional data table
[5] = Urinary recovery after intramuscular administration to mice; assay type: in vivo; details: mouse, intramuscular dose of 20 mg/kg, 0-6 hour collection, 360 min
Procedure: Compounds were solubilized in 0.1 M phosphate buffer pH 7. Values are from a single test; 4 mice per compound.
as §1
***Recovery based on 0-6 hour collection

P. rettgeri A22424 = assay: In vitro MIC, tube dilution; assay type: cell-based; details: Nutrient Broth, overnight incubation at 37° C., additional data table
P. vulgaris A21559 = assay: In vitro MIC, tube dilution; assay type: cell-based; details: Nutrient Broth, overnight incubation at 37° C., additional data table
E. cloacae A-9659 = assay: In vitro MIC, tube dilution; assay type: cell-based; details: Nutrient Broth, overnight incubation at 37° C., additional data table
Excerpt: N-formimidoyl thienamycin was included as a comparison compound.

S. aureus A-9537 = assay: In vitro MIC, tube dilution; assay type: cell-based; details: Staphylococcus aureus, overnight incubation at 37° C., additional data table
S. pyogenes A-9604 = assay: In vitro MIC, tube dilution; assay type: cell-based; details: Streptococcus pyogenes, A9604, tube dilution, Nutrient Broth, overnight incubation at 37° C.; additional data table
S. marcescens A20019 = assay: In vitro MIC, tube dilution; assay type: cell-based; details: Nutrient Broth, overnight incubation at 37° C., additional data table
P. aeruginosa A20481 = assay: Protective effect in the intramuscular treatment of infected mice (PD50); assay type: in vivo; details: Pseudomonas aeruginosa, A20481, im; mice infected i.p. (Ex. 2: 1 × 10^5 organisms), treated i.m. 0 and 2 h postinfection
P. aeruginosa A-9843a [6] = assay: as above; assay type: in vivo; details: Pseudomonas aeruginosa, A9843A, im, read-out: PD50/treatment, P. aeruginosa A9843A
Procedure: The PD50 (dose in mg/kg required to give protection to 50% of the infected mice) is indicated.
Treatment Schedule: Mice were treated i.m. with drugs 0 and 2 hours post-infection; 5 mice per dose were used for each test
*For compound of Ex. 2, mice were infected i.p. with 2 × 10^9
compounds of Ex. 4 and 5, mice were infected i.p. with ~9 ×
were treated i.m. with drugs 0 and 2 h postinfection.

[7] = A9537, 50% serum, tube dilution, read-out: MIC S. aureus-50% serum A-9537
[8] = A9537, tube dilution, Nutrient Broth, read-out: MIC S. aureus A-9537

SMILES: C[C@@H](O)[C@H]1C(=O)N2C(C(=O)[O-])=C(SCC[N+]3(C)CC[S+]([O-])CC3)C[C@H]12 (single isomer, unassigned) [Ex. 5 comp. B]
- MIC K. pneumoniae A20468 (K. pneumoniae A20468; tube dilution): 0.5 µg/mL (≈ 1.29 µM)
- MIC E. coli A20341-1 (E. coli A20341-1; tube dilution): 0.13 µg/mL (≈ 0.335 µM)
- MIC (E. cloacae A-9656): 0.25 µg/mL (≈ 0.643 µM)
- MIC (P. aeruginosa A21213): 32 µg/mL (≈ 82.4 µM)
- ED50 (S. aureus A-9606): 0.39 mg/kg
- MIC K. pneumoniae A-9664 (K. pneumoniae A-9664; tube dilution): 0.25 µg/mL (≈ 0.643 µM)
- MIC E. coli A15119 (E. coli A15119; tube dilution): 0.13 µg/mL (≈ 0.335 µM)
- MIC (P. aeruginosa A-9843A [1]): 63 µg/mL (≈ 162 µM)
- MIC (S. pneumoniae A-9585): 4 ng/mL (≈ 0.0103 µM)
- MIC (P. mirabilis A-9900): 0.25 µg/mL (≈ 0.643 µM)
- Blood AUC [2]: 4.6 µg·h/mL
- Blood Cmax [2]: 12.6 µg/mL
- Blood T1/2 [2]: 10 min
- MIC S. faecalis A20688 (S. faecalis A20688; tube dilution): 1 µg/mL (≈ 2.57 µM)
- T 1/2 (solution stability) ([3]; 0.065 M, pH 7.4 phosphate buffer, listed as Fraction B): 10.75 h
- MIC [4]: 0.06 µg/mL (≈ 0.154 µM)
- MIC M. morganii A15153 (P. morganii A15153; tube dilution): 0.5 µg/mL (≈ 1.29 µM)
- Urine Recovery [5]: 15 ± 3%
- MIC P. rettgeri A22424 (P. rettgeri A22424; tube dilution): 1 µg/mL (≈ 2.57 µM)
- MIC P. vulgaris A21559 (P. vulgaris A21559; tube dilution): 0.25 µg/mL (≈ 0.643 µM)
- MIC E. cloacae A-9659 (E. cloacae A-9659; tube dilution): 0.5 µg/mL (≈ 1.29 µM)
- MIC (S. aureus A-9537; [7]): 0.06 µg/mL (≈ 0.154 µM)
- MIC (S. aureus A-9537; [8]): 0.03 µg/mL (≈ 0.0772 µM)
- MIC (S. pyogenes A-9604): 8 ng/mL (≈ 0.0206 µM)
- MIC S. marcescens A20019 (S. marcescens A20019; tube dilution): 0.25 µg/mL (≈ 0.643 µM)

SMILES: C[C@@H](O)[C@H]1C(=O)N2C(C(=O)[O-])=C(SCC[N+]3(C)CCSCC3)C[C@H]12 [Example 2, 3-[2-(N-Methyl-thiomorpholinium)ethylthio]-6α-[1'-(R)-hydroxyethyl]-7-oxo-1-azabicyclo[3.2.0]-hept-2-ene-2-carboxylate]
- MIC (K. pneumoniae A20468; Klebsiella pneumoniae, A20468, tube dilution): 0.13 µg/mL (≈ 0.349 µM)
- MIC (E. coli A20341-1; Escherichia coli, A203411, tube dilution): 0.03 µg/mL (≈ 0.0805 µM)
- MIC (E. cloacae A-9656): 0.13 µg/mL (≈ 0.349 µM)
- MIC (P. aeruginosa A21213): 8 µg/mL (≈ 21.5 µM)
- MIC (K. pneumoniae A-9664; Klebsiella pneumoniae, A9664, tube dilution): 0.06 µg/mL (≈ 0.161 µM)
- MIC (E. coli A15119; Escherichia coli, A15119, tube dilution): 0.016 µg/mL (≈ 0.043 µM)
- MIC (P. aeruginosa A-9843A [1]): 32 µg/mL (≈ 85.9 µM)
- MIC (S. pneumoniae A-9585): 1 ng/mL (≈ 0.00268 µM)
- ED50 (P. aeruginosa A20481): 33 mg/kg
- MIC (P. mirabilis A-9900): 0.06 µg/mL (≈ 0.161 µM)
- MIC (S. faecalis A20688; Enterococcus faecalis, A20688, tube dilution): 0.25 µg/mL (≈ 0.671 µM)
- half-life ([3]; 0.1 m phosphate buffer, pH 7, 0.1 M pH 7 phosphate buffer, read-out: T1/2 (solution stability) (converted)): 1060 min
- MIC [4]: 0.016 µg/mL (≈ 0.043 µM)
- MIC (P. morganii A15153; Morganella morganii, A15153, tube dilution, read-out: MIC M. morganii A15153): 0.06 µg/mL (≈ 0.161 µM)
- MIC (P. rettgeri A22424; Providencia rettgeri, A22424, tube dilution): 0.13 µg/mL (≈ 0.349 µM)
- MIC (P. vulgaris A21559; Proteus vulgaris, A21559, tube dilution): 0.03 µg/mL (≈ 0.0805 µM)
- MIC (E. cloacae A-9659; Enterobacter cloacae, A9659, tube dilution): 0.13 µg/mL (≈ 0.349 µM)
- MIC (S. aureus A-9537; [7]): 0.016 µg/mL (≈ 0.043 µM)
- MIC (S. aureus A-9537; [8]): 0.008 µg/mL (≈ 0.0215 µM)
- MIC (S. pyogenes A-9604): 2 ng/mL (≈ 0.00537 µM)
- ED50 (P. aeruginosa A-9843a [6]): 4.7 mg/kg
- MIC (S. marcescens A20019; Serratia marcescens, A20019, tube dilution): 0.06 µg/mL (≈ 0.161 µM)
